Measurements from patent US20250263412A1, “NON-HYDROXAMATE HDAC6 INHIBITORS AND RELATED METHODS OF USE” (The Regents of the University of Michigan, priority 2021, published 2025).

Experiments:
wild-type DIO mice = assay: Diet-induced obesity study, daily intraperitoneal injections; assay type: in vivo, mouse
Method: (§1) Animals were housed at a 12 hours dark/light cycle, temperature and humidity controlled rooms. Mice were purchased from the Jackson LABoratory, except the HDAC6 global knockout (KO) mice, which were provided by Dr. Timothy A. Mckinsey (University of Colorado Anschutz Medical Campus, Aurora, CO, USA.). Mice were fed either regular chow or high fat diet (60 kcal % fat, Research Diets) to induce obesity (diet-induced obesity) and had free access to food and water unless specified. Body composition was analyzed with Bruker's minispec LF50 Body Composition Analyzer. Blood glucose was measured from tail vein by Contour blood glucose monitor system (Bayer). TubA (25 mg/kg body weight) or SE-7552 (50 mg/kg body weight) were administered within 1 hr before dark cycle daily by intraperitoneal (ip.) injections. For intraperitoneal injections, drugs or vehicle was injected at 25 uL volumes per animal. Mice and their food were measured daily or weekly to track body weight and food intake. Hematoxylin and eosin (H&E) staining of liver sections of diet-induced obese mice were done after one month of vehicle or TubA injections.

db/db mice = assay: Body weight study in db/db mice; assay type: in vivo, mouse; details: SE-7552 50 mg/kg, i.p., daily
Method: as §1

[1] = tested on: HDAC6 versus all other known HDAC isozymes; details: cited from earlier work

| Compound | diet-induced obesity (FIG. 2) (wild-type DIO mice; Tubastatin 25 mg/kg, daily i.p.) | obesity (body weight change, FIG. 1e) (wild-type DIO mice; SE-7552 50 mg/kg, i.p., daily) | weight loss (body weight change, FIG. 1f) (db/db mice) | selectivity versus all other known HDAC isozymes [1] |
| --- | --- | --- | --- | --- |
| CN1CCc2c(c3ccccc3n2Cc2ccc(C(=O)NO)cc2)C1 [Tubastatin A] | Reverses Diet-Induced Obesity |  |  |  |
| CC(Nc1ncc(-c2nnc(C(F)F)o2)cn1)c1ccc(F)cc1 (stereo not shown) [SE7552] |  | effectively reduces obesity | ineffective at inducing weight loss | About 1000 fold |
